Data taken from ChEMBL document CHEMBL1201862, “PubChem BioAssay data set” (2004).
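These data come from cells grown in 96-well plates and exposed to compound for 48 hours at five concentrations. Here, GI50 denotes the concentration required for 50% inhibition of growth.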 Activity calls are given as the source filed them. Rule as the data show it: active = GI50 up to about 1.1 µM and inactive = higher.

Key:
Experiment in all cases: NCI anticancer screen, dose series, 48 h
[1] = tested on: A498
[2] = tested on: M14
[3] = tested on: SF-268
[4] = tested on: HT-29
[5] = tested on: HCC 2998
[6] = tested on: IGROV-1
[7] = tested on: LXFL 529
[8] = tested on: HOP-62
[9] = tested on: EKVX
[10] = tested on: SF-295
[11] = tested on: U-251
[12] = tested on: NCI-H522
[13] = tested on: OVCAR-5
[14] = tested on: SNB-75
[15] = tested on: LOX IMVI
[16] = tested on: SR
[17] = tested on: NCI/ADR-RES
[18] = tested on: T47D
[19] = tested on: PC-3
[20] = tested on: BT-549

Measured: GI50

O=C(CSc1nnc(-c2ccc(/N=C\c3ccc(Cl)cc3)cc2)o1)Nc1ccc(Cl)cc1Cl
inactive: [1] > 100 µM | [2] 16.4 µM | [3] 25.2 µM | [4] 25.8 µM | [5] > 100 µM | [6] 32.8 µM | [7] 22.4 µM | [8] 30.5 µM | [9] 34.1 µM | [10] 27.2 µM | [11] 25.2 µM | [12] 27 µM | [13] 94.4 µM | [14] 22.7 µM

COc1cc2c(cc1OC)C(Cc1cc(Br)c(OC)c(OC)c1)=[N+](C)CC2
inactive: [2] 69.8 µM | [3] > 100 µM | [4] 33.2 µM | [15] 39.3 µM | [5] > 100 µM | [6] > 100 µM | [7] 9.73 µM | [8] 43.4 µM | [9] > 100 µM | [10] 30.5 µM | [11] 8.17 µM | [12] 22.8 µM | [13] 45.1 µM | [14] 94.4 µM

O=c1[nH]c(-c2ccccc2)nc2ccc(Cl)cc12
inactive: [3] 28 µM | [16] 85.5 µM | [4] 36.8 µM | [5] > 100 µM | [7] 29.4 µM | [9] 54.7 µM | [10] 73.6 µM | [11] > 100 µM | [12] 20.5 µM | [13] > 100 µM

CC(O)C(C(=O)O)N(CC1(O)OCC(O)C(O)C1O)N=O (centres undefined)
inactive: [1] > 100 µM | [2] > 100 µM | [4] > 100 µM | [15] > 100 µM | [5] > 100 µM | [6] > 100 µM | [7] > 100 µM | [8] > 100 µM | [9] > 100 µM | [11] > 100 µM | [12] > 100 µM | [13] > 100 µM | [14] > 100 µM

CCCCCCCCCCCCCCCC(=O)OCC1OC(n2cc(F)c(=O)[nH]c2=O)C(N)C(O)C1O (centres undefined)
inactive: [1] 25.9 µM | [2] 17.8 µM | [3] 19.5 µM | [4] 20.6 µM | [15] 17.4 µM | [5] 14.5 µM | [6] > 10 µM | [7] 18.9 µM | [8] 19.7 µM | [9] 18.8 µM | [10] 17.1 µM | [11] 18.5 µM | [12] 17.8 µM | [13] 27 µM | [14] 19.2 µM

C=CC[C@@]1(C)CCCCCCCCC[C@@](C)(CC=C)C1=O
inactive: [17] 32.7 µM | [1] 17.1 µM | [2] 28.6 µM | [3] 36.4 µM | [16] 27.5 µM | [4] 18.7 µM | [15] 18.1 µM | [5] 17.4 µM | [6] 31 µM | [8] 38.4 µM | [9] 38.4 µM | [10] 21.1 µM | [18] 21.2 µM | [11] 18.9 µM | [12] 35.2 µM | [19] 37.1 µM | [20] 27.4 µM | [13] > 100 µM | [14] 31.5 µM

COc1cc(-c2nccc3cc(OC)c(OC)cc23)ccc1O
inactive: [2] 45.9 µM | [16] 30.3 µM | [4] 30.8 µM | [15] 36.6 µM | [5] > 100 µM | [6] 80 µM | [7] 29.7 µM | [8] > 100 µM | [9] 35.6 µM | [10] 25.6 µM | [11] 70.6 µM | [12] 35.8 µM | [13] 34.9 µM | [14] 75.7 µM

Brc1ccccc1C1SCc2nc3ccccc3n21 (centres undefined)
inactive: [2] 17.2 µM | [3] 20 µM | [16] 12.6 µM | [4] 23.5 µM | [15] 13.2 µM | [6] 18.6 µM | [7] 15.1 µM | [8] 19 µM | [9] 17.3 µM | [10] 23.8 µM | [11] 15.7 µM | [12] 13.2 µM | [13] 10.2 µM | [14] 21.7 µM

C#CCNC(=O)N(CC#C)N=O
inactive: [1] > 100 µM | [2] > 100 µM | [3] > 100 µM | [4] > 100 µM | [15] 38.6 µM | [5] > 100 µM | [6] > 100 µM | [7] > 100 µM | [8] > 100 µM | [9] > 100 µM | [10] > 100 µM | [11] > 100 µM | [12] 19.5 µM | [13] > 100 µM | [14] > 100 µM

COc1cc(Br)c(/C=N\c2cccc3ccc(OS(=O)(=O)c4ccc([N+](=O)[O-])cc4)cc23)cc1OC
inactive: [1] > 100 µM | [3] > 100 µM | [16] > 100 µM | [4] > 100 µM | [15] 6.59 µM | [5] 36.4 µM | [6] > 100 µM | [7] 12.2 µM | [8] > 100 µM | [9] > 100 µM | [10] 5.06 µM | [11] > 100 µM | [12] 48 µM | [13] > 100 µM

Cn1c(=O)c(/N=N/c2c(=O)n(C)c(=O)n3c2[nH]c2ccccc23)c2[nH]c3ccccc3n2c1=O
inactive: [1] 90.4 µM | [2] > 100 µM | [3] 46.2 µM | [4] > 100 µM | [15] 6.24 µM | [5] > 100 µM | [6] 86.7 µM | [7] 20 µM | [8] 57.1 µM | [9] > 100 µM | [10] 12.4 µM | [11] 22.4 µM | [12] 66.5 µM | [13] > 100 µM | [14] 29.1 µM

COCCCNC(=O)C1C(=O)N(CCCOC)C(=O)/C1=N\N (centres undefined)
inactive: [1] > 100 µM | [2] > 100 µM | [3] > 100 µM | [4] > 100 µM | [5] > 100 µM | [7] > 100 µM | [8] > 100 µM | [9] > 100 µM | [10] > 100 µM | [11] > 100 µM | [12] > 100 µM | [13] > 100 µM | [14] 38.3 µM

COC(=O)C1=C(C[S+]([O-])c2ccc([N+](=O)[O-])cc2[N+](=O)[O-])ON(C)C1c1ccccc1 (centres undefined)
inactive: [1] > 61.8 µM | [2] 96.6 µM | [3] 33.5 µM | [4] 20.2 µM | [15] 14.9 µM | [5] > 37.8 µM | [6] > 84.5 µM | [7] 30.1 µM | [8] 39 µM | [9] > 64.6 µM | [10] 46.8 µM | [11] 31.3 µM | [12] 17.7 µM | [13] > 95.7 µM | [14] 16.3 µM

Cc1ccc(S(=O)(=O)NC(=O)NCCc2ccccc2)cc1
inactive: [1] > 100 µM | [2] > 100 µM | [3] > 100 µM | [15] > 100 µM | [5] > 100 µM | [6] > 100 µM | [7] > 100 µM | [8] > 100 µM | [9] > 100 µM | [10] > 100 µM | [11] > 100 µM | [12] 73.8 µM | [13] > 100 µM | [14] 68.2 µM
